Laboratory results as given in US20230107941A1, “HEPATITIS B CAPSID ASSEMBLY MODULATORS” (Venatorx Pharmaceuticals, Inc., priority 2019, published 2023).
pEC50: −log10 of the molar value.

Tests used:
[1] = In vitro cytotoxicity assay (MTT cell viability) in HepG2 cells; assay type: cell-based, human; conditions: human
Procedure, shortened: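 CC50 was derived by 4-parameter fit of viability relative to vehicle controls, measured as MTT formazan absorbance at 492 nm after 3–4 h of reagent and DMSO solubilization. Before that, HepG2 cells seeded overnight at 20,000/well were incubated 7 days at 37°C with compound from 30 μM down to 1.0 nM in half-log steps.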

HBV = assay: In vitro antiviral assay: anti-HBV replication in HepAD38 cells (extracellular HBV DNA by QPCR); assay type: cell-based, hepatitis B virus (genotype D, serotype ayw); conditions: Hepatitis B virus, HePAD38, 168 h, 7 days incubation, extracellular HBV DNA by QPCR, read-out: Anti-HBV EC50
Procedure, shortened: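 Read-out is extracellular HBV DNA (copies/mL, QPCR standard curve) after 7-day exposure of tet-free HepAD38 cells to 10-fold dilutions from 1 μM down to 10 pM. Values normalised to DMSO vehicle; EC50 from 4-parameter nonlinear regression, with entecavir validating each run.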

SMILES | CC50 at 7 days [1] [nM] | pEC50 (HBV)
Cc1cc(NC(=O)c2c(C)c(C(=O)C(=O)N[C@H]3CC[C@@H](OCC(=O)NCCOCCOCCOCCOCCOCCOCCOCCNC(=O)CCCCC4SCC5NC(=O)NC54)CC3)n(C)c2C)ccc1F (stereo partly drawn) [Example 121, 5-(2-(((1s,4s)-4-((2,28-dioxo-32-(2-oxohexahydro-1H-thieno[3,4-d]imidazol-4-yl)-6,9,12,15,18,21,24-heptaoxa-3,27-diazadotriacontyl)oxy)cyclohexyl)amino)-2-oxoacetyl)-N-(4-fluoro-3-methylphenyl)-1,2,4-trimethyl-1H-pyrrole-3-carboxamide] | > 30000 | < 6.00
Cc1cc(NC(=O)c2c(C)c(C(=O)C(=O)N[C@@H]3CC[C@H](O)C[C@@H]3F)n(C)c2C)ccc1F [Example 122, N-(4-fluoro-3-methylphenyl)-5-(2-(((1R,2S,4S)-2-fluoro-4-hydroxycyclohexyl)amino)-2-oxoacetyl)-1,2,4-trimethyl-1H-pyrrole-3-carboxamide] | 5000 to 30000 | > 7.30
Cc1cc(NC(=O)c2c(C)c(C(=O)C(=O)N[C@]3(C)C[C@H](O)C3)n(C)c2CC2CC2)ccc1F [Example 123, 2-(cyclopropylmethyl)-N-(4-fluoro-3-methylphenyl)-5-(2-(((1s,3s)-3-hydroxy-1-methylcyclobutyl)amino)-2-oxoacetyl)-1,4-dimethyl-1H-pyrrole-3-carboxamide] | > 30000 | > 7.30
Cc1cc(NC(=O)c2c(C)c(C(=O)C(=O)N[C@H]3CC[C@@H](S(C)(=O)=O)CC3)n(C)c2CC2CC2)ccc1F [Example 124, 2-(cyclopropylmethyl)-N-(4-fluoro-3-methylphenyl)-1,4-dimethyl-5-(2-(((1s,4s)-4-(methylsulfonyl)cyclohexyl)amino)-2-oxoacetyl)-1H-pyrrole-3-carboxamide] | > 30000 | 6.30 to 7.30
Cc1cc(NC(=O)c2c(C)c(C(=O)C(=O)N[C@]3(C)CC[C@H](O)CC3)n(C)c2CC2CC2)ccc1F [Example 125, 2-(cyclopropylmethyl)-N-(4-fluoro-3-methylphenyl)-5-(2-(((1s,4s)-4-hydroxy-1-methylcyclohexyl)amino)-2-oxoacetyl)-1,4-dimethyl-1H-pyrrole-3-carboxamide] | > 30000 | > 7.30
Cc1cc(NC(=O)c2c(C)c(C(=O)C(=O)N[C@H]3CC[C@@H](O)CC3)n(C)c2CC2CC2)ccc1F [Example 126, 2-(cyclopropylmethyl)-N-(4-fluoro-3-methylphenyl)-5-(2-(((1s,4s)-4-hydroxycyclohexyl)amino)-2-oxoacetyl)-1,4-dimethyl-1H-pyrrole-3-carboxamide] | > 30000 | > 7.30
Cc1cc(NC(=O)c2c(C)c(C(=O)C(=O)NCC(C)(C)O)n(C)c2CC2CC2)ccc1F [Example 127, 2-(cyclopropylmethyl)-N-(4-fluoro-3-methylphenyl)-5-(2-((2-hydroxy-2-methylpropyl)amino)-2-oxoacetyl)-1,4-dimethyl-1H-pyrrole-3-carboxamide] | 5000 to 30000 | > 7.30
Cc1cc(NC(=O)c2c(C)c(C(=O)C(=O)N[C@]3(C)C[C@H](O)C3)n(C)c2C2CC2)ccc1F [Example 128, 2-cyclopropyl-N-(4-fluoro-3-methylphenyl)-5-(2-(((1s,3s)-3-hydroxy-1-methylcyclobutyl)amino)-2-oxoacetyl)-1,4-dimethyl-1H-pyrrole-3-carboxamide] | > 30000 | > 7.30
Cc1cc(NC(=O)c2c(C)c(C(=O)C(=O)N[C@H]3CC[C@@H](S(C)(=O)=O)CC3)n(C)c2C2CC2)ccc1F [Example 129, 2-cyclopropyl-N-(4-fluoro-3-methylphenyl)-1,4-dimethyl-5-(2-(((1s,4s)-4-(methylsulfonyl)cyclohexyl)amino)-2-oxoacetyl)-1H-pyrrole-3-carboxamide] | > 30000 | > 7.30
Cc1cc(NC(=O)c2c(C)c(C(=O)C(=O)NCC(C)(C)O)n(C)c2C2CC2)ccc1F [Example 130, 2-cyclopropyl-N-(4-fluoro-3-methylphenyl)-5-(2-((2-hydroxy-2-methylpropyl)amino)-2-oxoacetyl)-1,4-dimethyl-1H-pyrrole-3-carboxamide] | 5000 to 30000 | > 7.30
Cc1cc(NC(=O)c2c(C)c(C(=O)C(=O)N[C@H]3CC[C@@H](S(C)(=O)=O)CC3)n(C)c2C2CCCC2)ccc1F [Example 131, 2-cyclopentyl-N-(4-fluoro-3-methylphenyl)-1,4-dimethyl-5-(2-(((1s,4s)-4-(methylsulfonyl)cyclohexyl)amino)-2-oxoacetyl)-1H-pyrrole-3-carboxamide] | 5000 to 30000 | < 6.00
Cc1cc(NC(=O)c2c(C)c(C(=O)C(=O)N[C@]3(C)C[C@H](O)C3)n(C)c2C2CCCC2)ccc1F [Example 132, 2-cyclopentyl-N-(4-fluoro-3-methylphenyl)-5-(2-(((1s,3s)-3-hydroxy-1-methylcyclobutyl)amino)-2-oxoacetyl)-1,4-dimethyl-1H-pyrrole-3-carboxamide] | > 30000 | 6.30 to 7.30
Cc1cc(NC(=O)c2c(C)c(C(=O)C(=O)N[C@]3(C)CC[C@H](O)CC3)n(C)c2C2CCCC2)ccc1F [Example 133, 2-cyclopentyl-N-(4-fluoro-3-methylphenyl)-5-(2-(((1s,4s)-4-hydroxy-1-methylcyclohexyl)amino)-2-oxoacetyl)-1,4-dimethyl-1H-pyrrole-3-carboxamide] | > 30000 | > 7.30
Cc1cc(NC(=O)c2c(C)c(C(=O)C(=O)N[C@H]3CC[C@@H](O)CC3)n(C)c2C2CCCC2)ccc1F [Example 134, 2-cyclopentyl-N-(4-fluoro-3-methylphenyl)-5-(2-(((1s,4s)-4-hydroxycyclohexyl)amino)-2-oxoacetyl)-1,4-dimethyl-1H-pyrrole-3-carboxamide] | > 30000 | 6.30 to 7.30
Cc1cc(NC(=O)c2c(C)c(C(=O)C(=O)NCC(C)(C)O)n(C)c2C2CCCC2)ccc1F [Example 135, 2-cyclopentyl-N-(4-fluoro-3-methylphenyl)-5-(2-((2-hydroxy-2-methylpropyl)amino)-2-oxoacetyl)-1,4-dimethyl-1H-pyrrole-3-carboxamide] | > 30000 | 6.30 to 7.30
Cc1c(C(=O)Nc2ccc(F)c(C3CC3)c2)c(C)n(C)c1C(=O)C(=O)N[C@]1(C)CC[C@@H](O)CC1 [Example 136, N-(3-cyclopropyl-4-fluorophenyl)-5-(2-(((1r,4r)-4-hydroxy-1-methylcyclohexyl)amino)-2-oxoacetyl)-1,2,4-trimethyl-1H-pyrrole-3-carboxamide] | > 30000 | > 7.30
Cc1c(C(=O)Nc2ccc(F)cc2)c(C)n(C)c1C(=O)C(=O)N[C@]1(C)CC[C@@H](O)CC1 [Example 137, N-(4-fluorophenyl)-5-(2-(((1r,4r)-4-hydroxy-1-methylcyclohexyl)amino)-2-oxoacetyl)-1,2,4-trimethyl-1H-pyrrole-3-carboxamide] | > 30000 | > 7.30
Cc1c(C(=O)Nc2ccc(F)c(C3CC3)c2)c(C)n(C)c1C(=O)C(=O)NC(C)(C)C [Example 138, 5-(2-(tert-butylamino)-2-oxoacetyl)-N-(3-cyclopropyl-4-fluorophenyl)-1,2,4-trimethyl-1H-pyrrole-3-carboxamide] | > 30000 | > 7.30
Cc1c(C(=O)Nc2ccc(F)c(-c3nc[nH]n3)c2)c(C)n(C)c1C(=O)C(=O)NC(C)(C)C [Example 139, 5-(2-(tert-butylamino)-2-oxoacetyl)-N-(4-fluoro-3-(1H-1,2,4-triazol-3-yl)phenyl)-1,2,4-trimethyl-1H-pyrrole-3-carboxamide] | > 30000 | < 6.00
Cc1c(C(=O)Nc2ccc(F)c(C#N)c2)c(C)n(C)c1C(=O)C(=O)Nc1ccc(B(O)O)cc1 [Example 140, (4-(2-(4-((3-cyano-4-fluorophenyl)carbamoyl)-1,3,5-trimethyl-1H-pyrrol-2-yl)-2-oxoacetamido)phenyl)boronic acid] | > 30000 | > 7.30
Cc1c(C(=O)Nc2ccc(F)c(C#N)c2)c(C)n(C)c1C(=O)C(=O)Nc1cccc(B(O)O)c1 [Example 141, (3-(2-(4-((3-cyano-4-fluorophenyl)carbamoyl)-1,3,5-trimethyl-1H-pyrrol-2-yl)-2-oxoacetamido)phenyl)boronic acid] | > 30000 | 6.30 to 7.30
Cc1cc(NC(=O)c2c(C)c(C(=O)C(=O)N[C@H]3CC[C@@H](OCC(=O)O)CC3)n(C)c2C)ccc1F [Example 144, 2-(((1s,4s)-4-(2-(4-((4-fluoro-3-methylphenyl)carbamoyl)-1,3,5-trimethyl-1H-pyrrol-2-yl)-2-oxoacetamido)cyclohexyl)oxy) acetic acid] | > 30000 | 6.30 to 7.30
Cc1cc(NC(=O)c2c(C)c(C(=O)C(=O)NC3(CC(=O)O)CCNCC3)n(C)c2C)ccc1F [Example 145, 2-(4-(2-(4-((4-fluoro-3-methylphenyl)carbamoyl)-1,3,5-trimethyl-1H-pyrrol-2-yl)-2-oxoacetamido)piperidin-4-yl)acetic acid] | > 30000 | 6.30 to 7.30
Cc1cc(NC(=O)c2c(C)c(C(=O)C(=O)NC3(CC(=O)O)CCCNC3)n(C)c2C)ccc1F (stereo not drawn) [Example 146, 2-(3-(2-(4-((4-fluoro-3-methylphenyl)carbamoyl)-1,3,5-trimethyl-1H-pyrrol-2-yl)-2-oxoacetamido)piperidin-3-yl)acetic acid] | > 30000 | < 6.00
